pEC50: −log10 of the molar value. Where two headings read alike, the source gives them in different places.
System: HCV 1b-377-neo replicon cells
Assay: HCV replicon assay, HCV 1b-377-neo replicon cells (1b FRET)
Type: cell-based, Hepatitis C virus genotype 1b
Conditions: HCV 1b-377-neo replicon cells, HCV 1b genotype; for pEC50: read-out: EC50 range against HCV 1b (Table 2, Range)
Method in brief: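 FRET-based replicon assay in HCV 1b-377-neo cells, including a comparison line carrying the NS5A Y2065H mutation that confers resistance to a reference compound.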

With `COC(=O)N(C)[C@H](C(=O)N1CCC[C@H]1c1ncc(-c2ccc(-c3ccc(-c4cnc([C@@H]5CCCN5C(=O)[C@H](C(C)C)N(C)C(=O)OC)[nH]4)cc3)cc2)[nH]1)C(C)C` [Example M11, methyl ((1S)-1-(((2S)-2-(5-(4′-(2-((2S)-1-((2S)-2-((methoxycarbonyl)(methyl)amino)-3-methylbutanoyl)-2-pyrrolidinyl)-1H-imidazol-5-yl)-4-biphenylyl)-1H-imidazol-2-yl)-1-pyrrolidinyl)carbonyl)-2-methylpropyl)methyl-carbamate] the pEC50 (Hepatitis C virus) was 7.00 to 9.00.

`COC(=O)N[C@H](C(=O)N1CCC[C@H]1c1ncc(-c2ccc(-c3ccc(-c4cnc([C@@H]5CCCN5C(=O)[C@@H](NC(=O)OC)c5ccccc5)[nH]4)cc3)cc2)[nH]1)c1ccccc1` [Example M12, dimethyl (4,4′-biphenyldiylbis(1H-imidazole-5,2-diyl(2S)-2,1-pyrrolidinediyl((1S)-2-oxo-1-phenyl-2,1-ethanediyl)))biscarbamate] gave a pEC50 (Hepatitis C virus) of 7.00 to 9.00.

`CCCN(CCC)[C@H](C)C(=O)N1CCC[C@H]1c1ncc(-c2ccc(-c3ccc(-c4cnc([C@@H]5CCCN5C(=O)[C@@H](C)N(CCC)CCC)[nH]4)cc3)cc2)[nH]1` [Example M13, N,N′-(4,4′-biphenyldiylbis(1H-imidazole-5,2-diyl(2S)-2,1-pyrrolidinediyl((2R)-1-oxo-1,2-propanediyl)))bis(N-propyl-1-propanamine)] gave a pEC50 (Hepatitis C virus) of 6.00 to 7.00.

`COC(=O)N[C@H](C(=O)N1CCC[C@H]1c1ncc(-c2ccc(-c3ccc(-c4cnc([C@@H]5CCCN5C(=O)[C@@H](NC(=O)OC)C(C)(C)O)[nH]4)cc3)cc2)[nH]1)C(C)(C)O` [Example M14, methyl ((1S)-2-hydroxy-1-(((2S)-2-(5-(4′-(2-((2S)-1-((2S)-3-hydroxy-2-((methoxycarbonyl)amino)-3-methylbutanoyl)-2-pyrrolidinyl)-1H-imidazol-5-yl)-4-biphenylyl)-1H-imidazol-2-yl)-1-pyrrolidinyl)carbonyl)-2-methylpropyl)carbamate] showed a pEC50 (Hepatitis C virus) of 6.00 to 7.00.

Compound `COC(=O)N[C@H](C(=O)N1CCC[C@H]1c1ncc(-c2ccc(-c3ccc(-c4cnc([C@@H]5CCCN5C(=O)[C@@H](NC(=O)OC)[C@@H](C)O)[nH]4)cc3)cc2)[nH]1)[C@@H](C)O` [Example M15, methyl ((1S,2R)-2-hydroxy-1-(((2S)-2-(5-(4′-(2-((2S)-1-((2S,3R)-3-hydroxy-2-((methoxycarbonyl)amino)butanoyl)-2-pyrrolidinyl)-1H-imidazol-5-yl)-4-biphenylyl)-1H-imidazol-2-yl)-1-pyrrolidinyl)carbonyl)propyl)carbamate] has a pEC50 (Hepatitis C virus) of 6.00 to 7.00.

In the case of `COC(=O)N[C@H](C(=O)N1CCC[C@H]1c1ncc(-c2ccc(-c3ccc(-c4cnc([C@@H]5CCCN5C(=O)[C@@H](NC(=O)OC)[C@H](C)O)[nH]4)cc3)cc2)[nH]1)[C@H](C)O` [Example M16, methyl ((1S,2S)-2-hydroxy-1-(((2S)-2-(5-(4′-(2-((2S)-1-((2S,3S)-3-hydroxy-2-((methoxycarbonyl)amino)butanoyl)-2-pyrrolidinyl)-1H-imidazol-5-yl)-4-biphenylyl)-1H-imidazol-2-yl)-1-pyrrolidinyl)carbonyl)propyl)carbamate], the pEC50 (Hepatitis C virus) was 5.00 to 6.00.

`COC(=O)N[C@@H](C)C(=O)N1CCC[C@H]1c1ncc(-c2ccc(-c3ccc(-c4cnc([C@@H]5CCCN5[C@@](C)(C=O)NC(=O)OC)[nH]4)cc3)cc2)[nH]1` [Example M17, methyl ((1S)-1-((2S)-2-(5-(4′-(2-((2S)-1-(N-(methoxycarbonyl)-L-alanyl)-2-pyrrolidinyl)-1H-imidazol-5-yl)-4-biphenylyl)-1H-imidazol-2-yl)-1-pyrrolidinyl)-1-methyl-2-oxoethyl)carbamate] gave a pEC50 (Hepatitis C virus) of 6.00 to 7.00.

`COC(=O)N[C@H](C)C(=O)N1CCC[C@H]1c1ncc(-c2ccc(-c3ccc(-c4cnc([C@@H]5CCCN5C(=O)[C@@H](C)NC(=O)OC)[nH]4)cc3)cc2)[nH]1` [Example M18, methyl ((1R)-2-((2S)-2-(5-(4′-(2-((2S)-1-(N-(methoxycarbonyl)-D-alanyl)-2-pyrrolidinyl)-1H-imidazol-5-yl)-4-biphenylyl)-1H-imidazol-2-yl)-1-pyrrolidinyl)-1-methyl-2-oxoethyl)carbamate] showed a pEC50 (Hepatitis C virus) of 5.00 to 6.00.

`C[C@@H](C(=O)N1CCC[C@H]1c1ncc(-c2ccc(-c3ccc(-c4cnc([C@@H]5CCCN5C(=O)[C@H](C)N(C)C)[nH]4)cc3)cc2)[nH]1)N(C)C` [Example M19, (2S,2′S)-1,1′-(4,4′-biphenyldiylbis(1H-imidazole-5,2-diyl(2S)-2,1-pyrrolidinediyl))bis(N,N-dimethyl-1-oxo-2-propanamine)] was tested, and the “EC50 range against HCV 1b (Table 2, Range)” value was “>A”.

Work on `CC[C@H](NC(=O)OC)C(=O)N1CCC[C@H]1c1ncc(-c2ccc(-c3ccc(-c4cnc([C@@H]5CCCN5C(=O)[C@H](CC)NC(=O)OC)[nH]4)cc3)cc2)[nH]1` [Example M21, dimethyl (4,4′-biphenyldiylbis(1H-imidazole-5,2-diyl(2S)-2,1-pyrroldinediyl((2S)-1-oxo-1,2-butanediyl)))biscarbamate] yielded a pEC50 of 7.00 to 9.00.

`COC(=O)N[C@@H](C(=O)N1CCC[C@H]1c1ncc(-c2ccc(-c3ccc(-c4cnc([C@@H]5CCCN5C(=O)[C@H](NC(=O)OC)C5CC5)[nH]4)cc3)cc2)[nH]1)C1CC1` [Example M22, dimethyl (4,4′-biphenyldiylbis(1H-imidazole-5,2-diyl(2S)-2,1-pyrrolidinediyl((1R)-1-cyclopropyl-2-oxo-2,1-ethanediyl)))biscarbamate] gave a pEC50 (Hepatitis C virus) of 5.00 to 6.00.

`COC(=O)N[C@H](C(=O)N1CCC[C@H]1c1ncc(-c2ccc(-c3ccc(-c4cnc([C@@H]5CCCN5C(=O)[C@@H](NC(=O)OC)C5CC5)[nH]4)cc3)cc2)[nH]1)C1CC1` [Example M23, dimethyl (4,4′-biphenyldiylbis(1H-imidazole-5,2-diyl(2S)-2,1-pyrrolidinediyl((1S)-1-cyclopropyl-2-oxo-2,1-ethanediyl)))biscarbamate] gave a pEC50 (Hepatitis C virus) of 7.00 to 9.00.

`COC(=O)N[C@H](C(=O)N1CCC[C@H]1c1ncc(-c2ccc(-c3ccc(-c4cnc([C@@H]5CCCN5C(=O)[C@@H](NC(=O)OC)C(C)(C)C)[nH]4)cc3)cc2)[nH]1)C(C)(C)C` [Example M24, methyl ((1S)-1-(((2S)-2-(5-(4′-(2-((2S)-1-((2S)-2-((methoxycarbonyl)amino)-3,3-dimethylbutanoyl)-2-pyrrolidinyl)-1H-imidazol-5-yl)-4-biphenylyl)-1H-imidazol-2-yl)-1-pyrrolidinyl)carbonyl)-2,2-dimethylpropyl)carbamate] was tested, and the pEC50 (Hepatitis C virus) was 7.00 to 9.00.

`C=CC[C@H](NC(=O)OC)C(=O)N1CCC[C@H]1c1ncc(-c2ccc(-c3ccc(-c4cnc([C@@H]5CCCN5C(=O)[C@H](CC=C)NC(=O)OC)[nH]4)cc3)cc2)[nH]1` [Example M25, dimethyl (4,4′-biphenyldiylbis(1H-imidazole-5,2-diyl(2S)-2,1-pyrrolidinediyl((4S)-5-oxo-1-pentene-5,4-diyl)))biscarbamate] was tested, and the pEC50 (Hepatitis C virus) was 7.00 to 9.00.

Compound `COC[C@H](NC(=O)OC)C(=O)N1CCC[C@H]1c1ncc(-c2ccc(-c3ccc(-c4cnc([C@@H]5CCCN5C(=O)[C@H](COC)NC(=O)OC)[nH]4)cc3)cc2)[nH]1` [Example M26, methyl ((1S)-2-((2S)-2-(5-(4′-(2-((2S)-1-(N-(methoxycarbonyl)-O-methyl-L-seryl)-2-pyrrolidinyl)-1H-imidazol-5-yl)-4-biphenylyl)-1H-imidazol-2-yl)-1-pyrrolidinyl)-1-(methoxymethyl)-2-oxoethyl)carbamate] has a pEC50 (Hepatitis C virus) of 6.00 to 7.00.

`CCC[C@H](NC(=O)OC)C(=O)N1CCC[C@H]1c1ncc(-c2ccc(-c3ccc(-c4cnc([C@@H]5CCCN5C(=O)[C@H](CCC)NC(=O)OC)[nH]4)cc3)cc2)[nH]1` [Example M27, methyl ((1S)-1-(((2S)-2-(5-(4′-(2-((2S)-1-((2S)-2-((methoxycarbonyl)amino)pentanoyl)-2-pyrroldinyl)-1H-imidazol-5-yl)-4-biphenylyl)-1H-imidazol-2-yl)-1-pyrrolidinyl)carbonyl)butyl)carbamate] was tested, and the pEC50 was 7.00 to 9.00.

For `COC(=O)N[C@H](C(=O)N1CCC[C@@H]1c1ncc(-c2ccc(-c3ccc(-c4cnc([C@H]5CCCN5C(=O)[C@@H](NC(=O)OC)C(C)C)[nH]4)cc3)cc2)[nH]1)C(C)C` [Example M28, methyl ((1S)-1-(((2R)-2-(5-(4′-(2-((2R)-1-((2S)-2-((methoxycarbonyl)amino)-3-methylbutanoyl)-2-pyrrolidinyl)-1H-imidazol-5-yl)-4-biphenylyl)-1H-imidazol-2-yl)-1-pyrrolidinyl)carbonyl)-2-methylpropyl)carbamate], the pEC50 (Hepatitis C virus) was 5.00 to 6.00.

Compound `COC(=O)N[C@H](C(=O)N1CCC[C@@H]1c1ncc(-c2ccc(-c3ccc(-c4cnc([C@@H]5CCCN5C(=O)[C@@H](NC(=O)OC)C(C)C)[nH]4)cc3)cc2)[nH]1)C(C)C` [Example M28-2, methyl ((1S)-1-(((2S)-2-(5-(4′-(2-((2R)-1-((2S)-2-((methoxycarbonyl)amino)-3-methylbutanoyl)-2-pyrrolidinyl)-1H-imidazol-5-yl)-4-biphenylyl)-1H-imidazol-2-yl)-1-pyrrolidinyl)carbonyl)-2-methylpropyl)carbamate] has a pEC50 (Hepatitis C virus) of 6.00 to 7.00.

With `COC(=O)N[C@@H](C(=O)N1CCC[C@@H]1c1ncc(-c2ccc(-c3ccc(-c4cnc([C@H]5CCCN5C(=O)[C@H](NC(=O)OC)C5CC5)[nH]4)cc3)cc2)[nH]1)C1CC1` [Example M29] the “EC50 range against HCV 1b (Table 2, Range)” value was “>A”.

In the case of `CCOC(=O)N[C@H](C)C(=O)N1CCC[C@H]1c1ncc(-c2ccc(-c3ccc(-c4cnc([C@@H]5CCCN5C(=O)[C@@H](c5ccccc5)N(CC)CC)[nH]4)cc3)cc2)[nH]1` [Example M30, ethyl ((1R)-2-((2S)-2-(5-(4′-(2-((2S)-1-((2R)-2-(diethylamino)-2-phenylacetyl)-2-pyrrolidinyl)-1H-imidazol-5-yl)-4-biphenylyl)-1H-imidazol-2-yl)-1-pyrrolidinyl)-1-methyl-2-oxoethyl)carbamate], the pEC50 (Hepatitis C virus) was 7.00 to 9.00.

From US8574563B2 (Bristol-Myers Squibb Company, priority 2006, dated 2013)
